Reference: PMC7562955 (Nature Communications, 2020)
Where “and” joins values, the source holds several entries; their conditions need not be identical. Equal entries are not always repeated. Where two headings read alike, the source gives them in different places.

How the values were obtained:
[1] = Pharmacokinetic profiling after oral dose in NZB/W F1 mice; assay type: in vivo, mouse; settings: for plasma Concentration, individual mouse / concentration at 3 h / concentration at 6 h / concentration at 24 h: 100 mg/kg po; for concentration at 3 h / concentration at 6 h / concentration at 24 h: female, NZB/W F1, mouse, plasma, oral, 100 mg/kg
Method: Cpd-7 was orally administered to 35-week-old female NZB/W F1 mice at 100 mg kg^−1 dissolved in 0.5 w/v% Methyl Cellulose 400 Solution (WAKO, Japan). Blood was collected over 24 h from the isoflurane-anesthetized mice via the jugular vein. The plasma samples were separated by centrifugation. Cpd-7 was extracted from the plasma samples by protein precipitation with methanol and measured using LC/MS/MS (HPLC: SHIMADZU CORPORATION, Japan; MS: AB Sciex Pte. Ltd., Japan). The lower limit of quantification was set at 5 ng/mL.

[2] = tested on: lupus-prone NZB/W F1 mice; assay: Efficacy study in lupus-prone NZB/W F1 mice (proteinuria, survival, kidney histopathology); assay type: in vivo; settings: for proteinuria (urinary albumin/creatinine ratio), mean / Histological score (glomerular lesion), Mean: n = 6; for Histological score (glomerular lesion), individual mouse: 0–4 scale
Method: At the initiation of treatment, mice were randomly divided according to bodyweight and proteinuria level (urinary albumin/creatinine ratio over 300 mg g^−1) and were orally once or twice daily. […] During the treatment, nearly dead individuals were euthanized, then sera and kidneys were collected. In this case, the last known values for urinary protein was carried forward.
Urine protein was quantified by automatic analyzer (BioMajesty ZERO(JCA-ZS050), JEOL Ltd, Japan) with Mouse Urinary Albumin Assay Kit (S-type) (AKRAL-021S, Shibayagi Co.,Ltd., Japan). Urine creatinine levels were measured in the same samples. The urine albumin excretion rate is expressed as the ratio of albumin to creatinine. Time course of proteinuria were analyzed by Dunnett’s multiple-range test.
The both kidneys were fixed in 10% neutral-buffered formalin, embedded in paraffin, sectioned, stained with hematoxylin and eosin (HE) and periodic acid-Schiff (PAS), and examined by light microscopy. Glomerulonephritis was scored on a 0–4 scale, based on the intensity and extent of histopathological changes. A grade of 0 was given to kidney without glomerular lesions; a grade of 1 was given when there was minimal thickening of the mesangium; a grade of 2 was given when there was a noticeable increase in both mesangial and glomerular capillary cellularity; a grade of 3 was given when the preceding conditions were observed, along with superimposed inflammatory exudates and capsular adhesions; and a grade of 4 was given when the obliteration of the glomerular architecture included 70% of glomeruli. These classifications were used to grade 20 glomeruli within one area, and the mean glomerular histopathological score was calculated for each mouse. Data were analyzed by Tukey’s test.

[3] = 100 mg kg−1 po once or twice daily, four weeks

CCOc1nc(C)c2nc(-c3cncc(F)c3)n(Cc3ccc(CN4C[C@@H]5C[C@H]4CN5C)cc3)c2n1 [Cpd-7]
plasma Concentration, individual mouse ([1]; 3 h): 3240 ng/mL and 2770 ng/mL
plasma Concentration, individual mouse ([1]; 6 h): 948 ng/mL and 525 ng/mL
plasma Concentration, individual mouse ([1]; 24 h): 10 ng/mL and 7.55 ng/mL
concentration at 3 h ([1]; 3 h, n = 3, read-out: plasma Concentration, Mean): 2890 ng/mL
concentration at 3 h ([1]; 3 h, read-out: plasma Concentration, individual mouse): 2650 ng/mL
concentration at 6 h ([1]; 6 h, n = 3, read-out: plasma Concentration, Mean): 710 ng/mL
concentration at 6 h ([1]; 6 h, read-out: plasma Concentration, individual mouse): 658 ng/mL
concentration at 24 h ([1]; 24 h, n = 3, read-out: plasma Concentration, Mean): 8.63 ng/mL
concentration at 24 h ([1]; 24 h, read-out: plasma Concentration, individual mouse): 8.33 ng/mL
oral availability ([1]; single 100 mg kg−1 po): orally available
proteinuria (urinary albumin/creatinine ratio), mean ([2]; 100 mg kg-1 po B.I.D, 0 wk): 1719.9
proteinuria (urinary albumin/creatinine ratio), mean ([2]; 100 mg kg-1 po B.I.D, 1 wk): 7204.5
proteinuria (urinary albumin/creatinine ratio), mean ([2]; 100 mg kg-1 po B.I.D, 2 wk): 747.0
proteinuria (urinary albumin/creatinine ratio), mean ([2]; 100 mg kg-1 po B.I.D, 3 wk): 150.9
proteinuria (urinary albumin/creatinine ratio), mean ([2]; 100 mg kg-1 po B.I.D, 4 wk): 121.0
proteinuria (urinary albumin/creatinine ratio), mean ([2]; 100 mg kg-1 po Q.D., 0 wk): 1780.7
proteinuria (urinary albumin/creatinine ratio), mean ([2]; 100 mg kg-1 po Q.D., 1 wk): 10042.5
proteinuria (urinary albumin/creatinine ratio), mean ([2]; 100 mg kg-1 po Q.D., 2 wk): 9132.2
proteinuria (urinary albumin/creatinine ratio), mean ([2]; 100 mg kg-1 po Q.D., 3 wk): 6691.2
proteinuria (urinary albumin/creatinine ratio), mean ([2]; 100 mg kg-1 po Q.D., 4 wk): 3804.5
glomerular lesion scores vs vehicle ([2]; 100 mg kg−1 once or twice daily): significantly reduced
death/survival [2, 3]: prevented death in all mice
proteinuria vs vehicle [2, 3]: significant decrease in proteinuria
Histological score (glomerular lesion), individual mouse ([2]; B.I.D. 100 mg kg-1): 0 and 1
Survival rate ([2]; B.I.D. 100 mg kg-1, day 0): 100%
Survival rate ([2]; B.I.D. 100 mg kg-1, day 1): 100%
Survival rate ([2]; B.I.D. 100 mg kg-1, day 2): 100%
Survival rate ([2]; B.I.D. 100 mg kg-1, day 3): 100%
Survival rate ([2]; B.I.D. 100 mg kg-1, day 4): 100%
Survival rate ([2]; B.I.D. 100 mg kg-1, day 5): 100%
Survival rate ([2]; B.I.D. 100 mg kg-1, day 6): 100%
Survival rate ([2]; B.I.D. 100 mg kg-1, day 7): 100%
Survival rate ([2]; B.I.D. 100 mg kg-1, day 8): 100%
Survival rate ([2]; B.I.D. 100 mg kg-1, day 9): 100%
Survival rate ([2]; B.I.D. 100 mg kg-1, day 10): 100%
Survival rate ([2]; B.I.D. 100 mg kg-1, day 11): 100%
Survival rate ([2]; B.I.D. 100 mg kg-1, day 12): 100%
Survival rate ([2]; B.I.D. 100 mg kg-1, day 13): 100%
Survival rate ([2]; B.I.D. 100 mg kg-1, day 14): 100%
Survival rate ([2]; B.I.D. 100 mg kg-1, day 15): 100%
Survival rate ([2]; B.I.D. 100 mg kg-1, day 16): 100%
Survival rate ([2]; B.I.D. 100 mg kg-1, day 17): 100%
Survival rate ([2]; B.I.D. 100 mg kg-1, day 18): 100%
Survival rate ([2]; B.I.D. 100 mg kg-1, day 19): 100%
Survival rate ([2]; B.I.D. 100 mg kg-1, day 20): 100%
Survival rate ([2]; B.I.D. 100 mg kg-1, day 21): 100%
Survival rate ([2]; B.I.D. 100 mg kg-1, day 22): 100%
Survival rate ([2]; B.I.D. 100 mg kg-1, day 23): 100%
Survival rate ([2]; B.I.D. 100 mg kg-1, day 24): 100%
Survival rate ([2]; B.I.D. 100 mg kg-1, day 25): 100%
Survival rate ([2]; B.I.D. 100 mg kg-1, day 26): 100%
Survival rate ([2]; B.I.D. 100 mg kg-1, day 27): 100%
Survival rate ([2]; B.I.D. 100 mg kg-1, day 28): 100%
Histological score (glomerular lesion), Mean ([2]; B.I.D. 100 mg kg-1): 0.3333
Histological score (glomerular lesion), individual mouse ([2]; Q.D. 100 mg kg-1): 0 and 2 and 1 and 3
Survival rate ([2]; Q.D. 100 mg kg-1, day 0): 100%
Survival rate ([2]; Q.D. 100 mg kg-1, day 1): 100%
Survival rate ([2]; Q.D. 100 mg kg-1, day 2): 100%
Survival rate ([2]; Q.D. 100 mg kg-1, day 3): 100%
Survival rate ([2]; Q.D. 100 mg kg-1, day 4): 100%
Survival rate ([2]; Q.D. 100 mg kg-1, day 5): 100%
Survival rate ([2]; Q.D. 100 mg kg-1, day 6): 100%
Survival rate ([2]; Q.D. 100 mg kg-1, day 7): 100%
Survival rate ([2]; Q.D. 100 mg kg-1, day 8): 100%
Survival rate ([2]; Q.D. 100 mg kg-1, day 9): 100%
Survival rate ([2]; Q.D. 100 mg kg-1, day 10): 100%
Survival rate ([2]; Q.D. 100 mg kg-1, day 11): 100%
Survival rate ([2]; Q.D. 100 mg kg-1, day 12): 100%
Survival rate ([2]; Q.D. 100 mg kg-1, day 13): 100%
Survival rate ([2]; Q.D. 100 mg kg-1, day 14): 100%
Survival rate ([2]; Q.D. 100 mg kg-1, day 15): 100%
Survival rate ([2]; Q.D. 100 mg kg-1, day 16): 100%
Survival rate ([2]; Q.D. 100 mg kg-1, day 17): 100%
Survival rate ([2]; Q.D. 100 mg kg-1, day 18): 100%
Survival rate ([2]; Q.D. 100 mg kg-1, day 19): 100%
Survival rate ([2]; Q.D. 100 mg kg-1, day 20): 100%
Survival rate ([2]; Q.D. 100 mg kg-1, day 21): 100%
Survival rate ([2]; Q.D. 100 mg kg-1, day 22): 100%
Survival rate ([2]; Q.D. 100 mg kg-1, day 23): 100%
Survival rate ([2]; Q.D. 100 mg kg-1, day 24): 100%
Survival rate ([2]; Q.D. 100 mg kg-1, day 25): 100%
Survival rate ([2]; Q.D. 100 mg kg-1, day 26): 100%
Survival rate ([2]; Q.D. 100 mg kg-1, day 27): 100%
Survival rate ([2]; Q.D. 100 mg kg-1, day 28): 100%
Histological score (glomerular lesion), Mean ([2]; Q.D. 100 mg kg-1): 1
toxic signs in body weights or clinical signs ([2]; both treatment groups): no clear toxic signs
